The source of these data is patent US20200023080A1, “COMPOSITIONS AND METHOD FOR THE TREATMENT AND DETECTION OF COLON CANCER” (priority 2015, published 2020).

Positions of bridges follow the written chain, without caps; N, C: chain ends. Non-standard residues stand in square brackets, D forms with d. No end group written: not given here. IRDye‑680LT = infrared dye IRDye-680LT, conjugated via NHS ester

Test [1] has as its system colonic adenomas in Apc^+/Min-FCCC mice. Nature of the test: Ex-vivo imaging of excised colons incubated with probe (IVIS Spectrum). To be noted: 0.1 μM probe; for signal / ability to detect polyps in older mice: 4 and 6 month old mice. How it is done:
Ex-vivo and in vivo studies have been performed to evaluate the specificity of the IR680-SP-333 probe for colonic adenomas in Apc^+/Min-FCCC mice. IR680-SP-333 was prepared in DMEM/F-12 media containing 20 mM sodium phosphate buffer and 3% BSA, pH6; the same media used for in vitro experiments. Based on data from an initial pilot study, incubation of tissue with 0.1 μM IR680-SP-333 for 30 min at 37° C. was selected as the optimal condition for ex-vivo studies. Epifluorescence images were acquired as follows: excitation wavelength=640 nm, detection wavelength=700 nm, exposure time=auto-3 min, F-stop=1, binning=1 (“small” setting), field of view=0.3 cm (setting “C”). […] To eliminate the contribution of the age of mouse to the observed heterogeneity in probe binding, an in depth imaging study was performed in mice of various ages (2, 3, 4, 5 and 6 months). In this ex-vivo study, mice were euthanized and colons excised, opened longitudinally, and washed with PBS. Colon tissues were incubated with 0.1 μM IR680-SP-333 at 37° C. for 30 min. After incubation, the tissues were washed with PBS (4 times) and imaged in the IVIS Spectrum, using the settings described above. Careful review of the resulting images lead to three major conclusions: 1) the binding of the IR680-SP-333 probe to colorectal polyps is size dependent. […] 2) because the signal varied with polyp size, binding was enhanced in mice 2-3 months of age where the majority of colorectal polyps were smaller (≤3 mm in diameter) (FIG. 7). As the mice aged, the colorectal polyps increased in size and the ability of probe to detect the polyps decreased (FIG. 8). […] Because the incidence of colorectal polyps is higher in mice 3 months (70%) vs. 2 months (45%) of age, a decision was made to use mice 10-12 weeks of age for all subsequent in vivo IR680-SP-333 analyses to minimize the number of animal that needed to be screened for tumors. 3) signal of the IR680-SP-333 probe was high at the proximal and distal ends of the colon even in the absence of polyps. Similar nonspecific binding of unknown origin has been observed in previous experiments with independent probes at these same extreme regions.

For test [2], the target named is T1, GC-C binding sites on T84 cells (Homo sapiens, UniProt P25092).
T1 construct: endogenous in cells; host or cells: T84 human colon carcinoma cells
Put plainly: Binding of IR680-SP-333 probe to suspension of T84 cells. To be noted: 0.5 μM probe, 4° C. for 30 mins, FIG. 4. As for the experimental part: Next, we performed binding of probe to suspension of T84 cells. In this set of experiments, cells cultured for 9 days in T75 flasks were harvested by scraping and suspended in pre-chilled binding media. Different densities of cells were incubated with […] IR680-SP-333 (final concentration 0.5 μM) in pre-chilled binding buffer at 4° C. for 30 mins. The IR680-SP-333 was diluted with unlabeled SP-333 to adjust the final concentration of probe 0.5 μM. This dilution was necessary to saturate the available GC-C binding sites on 40,000 cells.

In test [3] the test system is cGMP production in T84 cells. Put plainly: T84 cGMP bioassay. The format is cell-based, Human. To be noted: FIG. 6.
The target in test [4] is T2, GC-C expressed on T84 cells (Homo sapiens, UniProt P25092).
T2 construct: endogenous in cells; host or cells: T84 human colon carcinoma cells
Put plainly: Binding of IR680-SP-333 probe to T84 cell monolayer. To be noted: 4° C. for 1 hour, FIG. 3. As for the experimental part: Experiments were performed to establish binding conditions to reduce background and to enhance specific binding. These experiments concluded that the age of T84 monolayer should be between 7-9 days after seeding to allow maximum expression of GC-C on the cell surface. Next, we established the optimal binding buffer, incubation time to allow binding of probe to T84 cells and temperature of binding incubation to minimize endocytosis. The optimal conditions for specific binding of probe to T84 cells are briefly described here. Human T84 cells were grown to confluence in 96 black clear bottom plates. Media was aspirated and the plate was blocked with 200 ul/well of blocking buffer (DMEM/F12+150 mM NaCl+20 mM Sodium phosphate dibasic, pH was adjusted to 6.0 with 1N HCl) for 2 hours in cell culture incubator at 37° C.

Test [5] concerns colon polyps in Apc^+/Min-FCCC mice. Put plainly: In vivo gavage of probe, imaging of excised colon and histopathology. As for the experimental part:
Following the ex-vivo binding studies, an experiment was performed to assess the ability of the probe to remain intact as it passed through the GI tract and bind to colonic lesions. In this in vivo experiment, Apc^+/Min-FCCC mice (10-12 wks of age) were subjected to a colonoscopic examination prior to probe administration, according to a protocol established previously (Hensley, Gastrointestinal Endoscopy group). Mice with confirmed colon polyps were randomized to receive IR680-SP-333 at 0.5 or 0.05 mg/kg body weight by gavage. Prior to probe administration, mice were fasted overnight and provided Pedialyte ad libitum for bowel cleansing. Mice were gavaged with IR680-SP-333 and euthanized at 30, 60, 90 and 120 min post treatment. At the time of euthanasia, the colon was excised, opened its entire length and rinsed with saline. Each colon was then placed on a plastic ruler and imaged in an IVIS Spectrum system using the settings described above for the ex-vivo experiments. Immediately following image acquisition, the entire colon was placed intact on a plastic ruler in 10% normal buffered formalin and areas positive and negative for probe signal were collected for histopathological evaluation. […] Evaluation of additional doses of IR680-SP-333 probe (0.0158 and 0.158 mg/kg body weight) confirmed that gavaging mice with IR680-SP-333 at 0.05 mg/kg body weight and imaging 30 min post treatment yielded the greatest differential in signal between the non-neoplastic and neoplastic colonic mucosa.
Colon tissues with strong signal (tumor) and corresponding background signal (nonneoplastic control) were processed for histopathology evaluation and reviewed bin a blinded manner. […] This heterogeneity made it impossible to standardize the epi-fluorescence scale and classify positive and negative signals based solely on the epi-fluorescence value. […] In FIG. 12 (mouse ID 12201), strong signal is localized to a hyperplastic polyp (HP); an area of high proliferation; providing additional support for the lack of correlation between the intensity of the probe signal and size/type of colonic lesion. […] The probe IR-680-SP-333 may also be useful in detection of colorectal metastasis in liver and other organs.

Test [6] deals with GC-C receptor (Homo sapiens, UniProt P25092). To be noted: cited from earlier work.
GC-C receptor, sequence (P25092 24-1073): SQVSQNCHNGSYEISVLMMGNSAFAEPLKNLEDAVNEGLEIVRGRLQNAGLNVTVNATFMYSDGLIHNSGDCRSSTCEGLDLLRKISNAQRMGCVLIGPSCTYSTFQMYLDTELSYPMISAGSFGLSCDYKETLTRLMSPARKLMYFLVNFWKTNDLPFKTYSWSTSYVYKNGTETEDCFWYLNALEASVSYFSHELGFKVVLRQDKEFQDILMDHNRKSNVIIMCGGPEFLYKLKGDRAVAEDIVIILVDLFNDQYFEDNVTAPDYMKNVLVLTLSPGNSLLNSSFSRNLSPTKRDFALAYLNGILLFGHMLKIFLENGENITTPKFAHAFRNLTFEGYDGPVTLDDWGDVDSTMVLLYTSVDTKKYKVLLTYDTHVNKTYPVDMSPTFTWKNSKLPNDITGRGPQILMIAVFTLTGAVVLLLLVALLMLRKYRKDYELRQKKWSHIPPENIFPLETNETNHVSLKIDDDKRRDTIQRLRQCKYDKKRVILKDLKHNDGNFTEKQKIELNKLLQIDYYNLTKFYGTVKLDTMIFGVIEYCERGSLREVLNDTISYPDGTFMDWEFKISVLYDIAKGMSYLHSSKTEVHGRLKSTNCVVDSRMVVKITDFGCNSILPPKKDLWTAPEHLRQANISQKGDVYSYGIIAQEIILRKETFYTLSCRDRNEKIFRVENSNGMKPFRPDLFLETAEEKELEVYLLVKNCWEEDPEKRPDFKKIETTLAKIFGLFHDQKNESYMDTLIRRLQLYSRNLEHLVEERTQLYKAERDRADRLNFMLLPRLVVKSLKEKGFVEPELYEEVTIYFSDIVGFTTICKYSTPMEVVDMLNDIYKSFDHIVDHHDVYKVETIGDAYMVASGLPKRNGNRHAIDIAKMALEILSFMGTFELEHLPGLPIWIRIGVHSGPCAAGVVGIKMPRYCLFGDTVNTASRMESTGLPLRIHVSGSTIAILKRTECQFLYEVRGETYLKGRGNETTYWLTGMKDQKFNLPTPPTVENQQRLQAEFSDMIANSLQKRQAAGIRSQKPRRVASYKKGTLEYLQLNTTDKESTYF

T2 sequence (P25092 24-1073): as above
T1 sequence (P25092 24-1073): as above

“IR680-SP-333: SP-333 labeled at the amine group with IRDye-680LT NHS ester; bioactive infrared fluorescence probe ({IRDye‑680LT}-[dN]DECELCVNVACTGC[dL]; disulfide 4-12, 7-15)”: the “signal at the proximal and distal ends of the colon in the absence of polyps” value in test [1] (30 min) is listed as “high”. In test [1] (30 min, FIG. 8), the “signal / ability to detect polyps in older mice” value was “decreased”. In addition, the “signal / ability to detect polyps in older mice” value in test [1] (30 min, FIG. 8, listed as SP-333-IR680) is “weaker than that observed in younger animals”. Also, the “binding in mice 2-3 months of age” value in test [1] (30 min, polyps mostly ≤3 mm, FIG. 7) is recorded as “enhanced”. In addition, in test [1] (30 min at 37° C.), the “binding to colorectal polyps versus surrounding normal colonic mucosa” value is “greater binding to colorectal polyps than to the surrounding normal colonic mucosa” and the “binding to every colorectal polyp” value is listed as “did not bind to every colorectal polyp”. For the same substance, the “probe signal by polyp size” value in test [1] (30 min at 37° C., FIG. 7) is on record as “higher in polyps ≤3 mm in diameter than in those with a diameter >4 mm”. Further, in test [2], the “binding of probe to cell suspension in the presence of 100-fold excess of SP-333” value is reported as “abolished”. In test [3], the “ability to stimulate cGMP production in T84 cells” value is recorded as “active” and the “level of cGMP production compared to unconjugated SP-333” value is given as “slightly lower level”. Further, in test [4], the “binding of probe in the presence of 100-fold excess of unlabeled SP-333” value is on record as “considerably reduced” and the “binding of probe to T84 cells (fluorescence ex680, em715)” value is on record as “specifically bound to GC-C expressed on T84 cells in a dose-dependent manner”. Also, in test [5] (gavage 0.05 mg/kg body weight, imaged 30 min post treatment, FIG. 9A), the “differential between signal of colorectal polyps and background of adjacent normal colonic mucosa” value is on record as “best differential”. Moreover, the “nonspecific signal at proximal and distal ends of colon” value in test [5] (gavage 0.5 mg/kg body weight, FIG. 9B) was “increased significantly”. In addition, the “differential between tumor and normal tissue at higher dose” value in test [5] (gavage 0.5 mg/kg body weight, FIG. 9B, 0.5 mg/kg) was “failed to improve the difference in signal between neoplastic and nonneoplastic mucosa significantly”. The “differential between tumor and normal tissue at higher dose” value in test [5] (gavage 0.5 mg/kg body weight, FIG. 9B, listed as SP-333-IR680, 0.5 mg/kg) was “failed to improve the differential between tumor and normal tissue”. Also, the “nonspecific binding at longer interval between dosing and imaging” value in test [5] (gavage, ≥90 min between dosing and imaging, FIG. 9C) is recorded as “increase in nonspecific binding”. In test [5] (histopathology, blinded review), the “correlation of probe signal intensity with tumor size or histological subtype” value was “did not correlate with either tumor size or the histological subtype of lesion”. The “probe signal in hyperplastic polyp (HP)” value in test [5] (mouse ID 12201, FIG. 12) was “strong signal”. Moreover, in test [5] (mouse ID 12276, FIG. 11), the “probe signal in flat/indeterminate adenoma” value is listed as “weaker signal” and the “probe signal in small gross lesion (1-mm in size)” value is reported as “very strong probe signal”. In test [5] (mouse ID 12281, FIG. 10), the “probe signal in adenoma” value was “intermediate signal intensity”, the “probe signal in areas of hyperproliferation (HP)” value is “strongest probe signal” and the “probe signal in micro-adenoma compared to surrounding normal colonic mucosa” value was “slight increase in signal”. The “background signal in normal colonic mucosa” value in test [5] (same dose and same post treatment time interval) is listed as “varied between mice receiving the same treatment regimen”.
“Asn^1-Asp^2-Asp^3-Cys^4-Glu^5-Leu^6-Cys^7-Val^8-Asn^9-Val^10-Ala^11-Cys^12-Thr^13-Gly^14-Cys^15-Leu^16 (NDDCELCVNVACTGCL; disulfide 4-12, 7-15) [Uroguanylin, a physiological ligand of GC-C, a 16 amino acid peptide with two disulfide bonds]”: the “affinity for the GC-C receptor” value in test [6] is on record as “nanomolar affinity”.
